Here are results for twelve substances from US10087234B2, “Mimetic peptides” (LES HOPITAUX UNIVERSITAIRES DE GENEVE, priority 2012, dated 2018).

Bridges are numbered along the chain shown (N, C = ends). Where no end group is shown, it is not given here. [ ]: non-standard residue; d: D form. R8 = C=CCCCCCC[C@@](C)(N)C(=O)O; S5 = C=CCCC[C@](C)(N)C(=O)O

Series [1] concerns anti-ApoA-I antibodies. Kind of series: Competition ELISA on plates coated with intact ApoA-I. It is filed as binding, human. The procedure:
Competition ELISA experiments using selected synthetic peptides were also carried out. Synthetic peptides (dissolved in PBS with 2% bovine serum albumin (BSA) at different concentrations were co-incubated with patient sera containing high levels of anti-ApoA-I IgG for 2 h at room temperature, before being added to the wells coated with purified, human-derived delipidated ApoA-I as described above, prior to development of the assay as described above.
In competition ELISA assays, serum from a patient known to be positive for anti-ApoA-I antibodies was preincubated with peptide F3L1 at different concentrations as indicated in FIG. 3 and then added to ELISA plates coated with intact ApoA-I, with the subsequent assay steps carried out according to the standard protocol.
A general note: An ELISA detects its analyte on a solid surface through an enzyme-linked reagent.

Series [2] can be described thus: CD spectroscopy to determine helical content. The settings on record: troughs at 208 and 222 nm, in comparison to non-stapled control peptide F3. It is filed as physicochemical. The procedure: Circular dichroism (CD) spectra from 185 to 240 nm were collected on a Jasco J-815 spectropolarimeter at 20° C. A typical sample was prepared by dissolving lyophilized peptide in 25% trifluoroethanol in water to obtain a concentration of 2 mM, then diluting this solution 20-fold in water and loading in a quartz cuvette (0.2 cm path length). Baseline CD spectra for 1.25% TFE in water was subtracted from the experimental spectra. Data were normalized by calculating the mean residue ellipticity at wavelength 222 nm, (θ)mrw, λ.

Series [3] relates to anti-ApoA-I antibodies. Kind of series: ELISA immunoreactivity of ApoA-I digestion fragments (epitope identification). It is filed as binding, human. The conditions noted are these: sera from 3 patients with high and 3 with low autoantibody titers. The protocol: To identify specific endogenous epitopes of ApoA-I, the purified ApoA-I was submitted to enzymatic digestion, hydrolyzing the protein specifically at the carboxyl side of lysine or at the carboxylic side of arginine, followed by peptide separation and purification by reversed phase-high performance liquid chromatography and peptide identification by mass spectrometry. The immunoreactivity to the digested protein and each fraction were tested by ELISA using serum samples from 3 patients with high titers and serum samples from 3 patients with low titers of autoantibodies.
For ApoA-I digested at lysine residues, the enzyme Endoproteinase Lys-C(Roche Applied Science) was used (amount of enzyme 1:50 was 1/50 of protein by weight, incubation for 18 h at 37° C., pH 8.5). ApoA-I digestion with Lys-C allowed identification of fractions 70 and 71 (FIG. 8) containing a previously unreported immunoreactive peptide epitope of amino acid sequence corresponding to amino acid residues 141-182 relative to mature amino acid sequence of ApoA-I of SEQ ID NO: 1, comprising the region derived from helix D of SEQ ID NO: 5 with a deletion of the last 2 amino acids of SEQ ID NO: 5. The amino acid sequence of this epitope is SEQ ID NO: 21.
In order to generate peptide fragments cleaved at arginine residues the conventional way would to use the enzyme ArgC. However, ArgC enzyme has a recognized lack of specificity, generating tryptic peptides, which abolished the immunoreactivity. […] This approach allowed identification of fractions 74 and 80 (FIG. 9) containing another immunoreactive peptide epitope of amino acid sequence corresponding to amino acid residues 216-243 relative to mature amino acid sequence of ApoA-I of SEQ ID NO: 1, comprising the region 1 derived from helix F of SEQ ID NO: 8. The amino acid sequence of this epitope is SEQ ID NO: 25.

Series [4] deals with Human monocyte-derived macrophages (HMDMs). As to the kind of experiment: Anti-ApoA-I IgG-related pro-inflammatory response (TNF-α production). Type of series: cell-based. The protocol:
Human monocyte-derived macrophages (HMDMs) were obtained by treating human monocytes with interferon (IFN)-γ for 24 hours as previously described (Pagano et al, 2012, J Intern Med). HMDMs were then stimulated in 96-well trays for 24 h with increasing concentrations (5-40 μg/mL) of either polyclonal anti-human ApoA-I (Academy Bio-Medical Company, Houston, Tex., USA) or control antibody (Meridian Life Science, Saco, Me., USA), with IgG from pool+ or pool− (500 μg/mL). In this model, LPS-free anti-ApoA-I IgG has been show to promote the production of TNF-α and IL-6 in a dose dependent manner, with an optimal stimulation at 40 μg/ml (Pagano et al, 2012, J Intern Med).
For competition inhibition experiments, synthetic peptides were co-incubated with 40 μg/ml polyclonal anti-ApoA-I IgG for 2 h at room temperature prior to addition to HMDMs in 96-well plates, and followed by the assessment of IL-6 and TNF-α levels in cell supernatants using Luminex MAP™ Technology. Experiments were performed with blood from three different donors.

The subject of series [5] is Neonatal rat ventricular cardiomyocytes (NRVC). Kind of series: Anti-ApoA-I IgG-related chronotropic response (beating frequency). It is filed as cell-based. The source says: Neonatal rat ventricular cardiomyocytes (NRVC) were isolated from ventricles of 1-2 day-old Wistar rats by digestion with low trypsin-EDTA and type 2 collagenase. Animals were killed by decapitation without any anesthesia, analgesia, or administration of neuromuscular blocking agents, in conformity with the Guide for the Care and Use of Laboratory Animals published by the NIH (publication 85-23) and with the authorization (1012/3134/0-R) of the local county veterinary office. Freshly isolated cells were seeded in plastic flasks to allow selective adhesion of cardiac fibroblasts. Thereafter cardiomyocytes were decanted from the flasks and distributed into laminin-coated 90 mm petri dishes.
After 1-2 days' culture, cells were incubated at time intervals with the appropriate concentration of monoclonal anti-ApoA-I IgG (Abcam, Nottingham, UK) or vehicle in serum-free DMEM. The beating frequency of spontaneously contracting small cell monolayers was determined immediately at the end of the pre-incubation period (t=0) and at different times after the addition of various substances. Frequency determinations were performed by a technician (unaware of the experimental conditions) using a light microscope to count the number of contractions per time unit in three different locations of the dish. The regularity of the cell contractions has been previously assessed by monitoring cytosolic-free calcium fluctuations with fluorescent calcium probes (Maturana et al, 2009, Endocrinology 150:3726-3734). […] Competition inhibition experiments with synthetic peptides were performed using the same experimental conditions. Synthetic peptides were co-incubated with 10 μg/ml monoclonal anti-ApoA-I (Abcam, Nottingham, UK) for 2 h at room temperature, before being added to NRVC in dishes, with beating frequency determined as described above.

The mark [6] stands for this setting: serum from 3 anti-ApoA-I positive patients, FIG. 5.

In the case of “GLLPVLESFKVSFLSALEEYTKKLNT (Ac-GLLPVLESFKVSFLSALEEYTKKLNT-NH2) [F3, reference compound]”, the “inhibition of binding of patient serum IgG to intact ApoA-I” value (shortened to “inhibition”) in the series with anti-ApoA-I antibodies [1] (setting [6]) was “effect observed”.
As for “Ac-GLLPVLESFKVSFLSXaaLEEYTKXaaLNT-NH2 (Ac-GLLPVLESFKVSFLS[R8]LEEYTK[S5]LNT-NH2; staple 16-23) [F3S2A]”, the alpha-helical content result in series [2] is “increased alpha-helical content”.
In the case of “LSPLGEEMRDRARAHVDALRTHLAPYSDELRQRLAARLEALK (D2) [SEQ ID NO: 21]”, the “immunoreactivity to anti-ApoA-I antibodies” value (from here on “immunoreactivity”) with anti-ApoA-I antibodies [3] is “immunoreactive”.
Consider “GLLPVLESFKVSFLSALEEYTKKLNT (not fully specified (bridges)) [SEQ ID NO: 9, Region 2 derived from helix F]”, for which the “immunoreactivity” value with anti-ApoA-I antibodies [3] is on record as “more immunoreactive”.
As to “Ac-VLESFKVSFLSALEXaaYTKXaaLNT-NH2 (Ac-VLESFKVSFLSALEEYTKKLNT-NH2; lactam 15-19; SMILES CC(=O)N[C@H](C(=O)N[C@@H](CC(C)C)C(=O)N[C@@H](CCC(=O)O)C(=O)N[C@@H](CO)C(=O)N[C@@H](Cc1ccccc1)C(=O)N[C@@H](CCCCN)C(=O)N[C@H](C(=O)N[C@@H](CO)C(=O)N[C@@H](Cc1ccccc1)C(=O)N[C@@H](CC(C)C)C(=O)N[C@@H](CO)C(=O)N[C@@H](C)C(=O)N[C@@H](CC(C)C)C(=O)N[C@@H](CCC(=O)O)C(=O)N[C@H]1CCC(=O)NCCCC[C@@H](C(=O)N[C@@H](CC(C)C)C(=O)N[C@@H](CC(N)=O)C(=O)N[C@H](C(N)=O)[C@@H](C)O)NC(=O)[C@H](CCCCN)NC(=O)[C@H]([C@@H](C)O)NC(=O)[C@H](Cc2ccc(O)cc2)NC1=O)C(C)C)C(C)C) [F4L1]”, in series [2], the alpha-helical content result is listed as “increased alpha-helical content”.
As to “QGLLPVLESFKVSFLSALEEYTKKLNTQ (F5) [SEQ ID NO: 25]”, the “immunoreactivity” value with anti-ApoA-I antibodies [3] is reported as “immunoreactive”.
Turning to “Ac-GLLPVLESFKVSFLSALEXaaYTKXaaLNT-NH2 (Ac-GLLPVLESFKVSFLSALEEYTKKLNT-NH2; lactam 19-23; SMILES CC(=O)NCC(=O)N[C@@H](CC(C)C)C(=O)N[C@@H](CC(C)C)C(=O)N1CCC[C@H]1C(=O)N[C@H](C(=O)N[C@@H](CC(C)C)C(=O)N[C@@H](CCC(=O)O)C(=O)N[C@@H](CO)C(=O)N[C@@H](Cc1ccccc1)C(=O)N[C@@H](CCCCN)C(=O)N[C@H](C(=O)N[C@@H](CO)C(=O)N[C@@H](Cc1ccccc1)C(=O)N[C@@H](CC(C)C)C(=O)N[C@@H](CO)C(=O)N[C@@H](C)C(=O)N[C@@H](CC(C)C)C(=O)N[C@@H](CCC(=O)O)C(=O)N[C@H]1CCC(=O)NCCCC[C@@H](C(=O)N[C@@H](CC(C)C)C(=O)N[C@@H](CC(N)=O)C(=O)N[C@H](C(N)=O)[C@@H](C)O)NC(=O)[C@H](CCCCN)NC(=O)[C@H]([C@@H](C)O)NC(=O)[C@H](Cc2ccc(O)cc2)NC1=O)C(C)C)C(C)C) [F3L1]”, the “inhibition” value was “competes effectively” with anti-ApoA-I antibodies [1] (setting [6]) and “capable of competitively inhibiting” with anti-ApoA-I antibodies [1] (serum from one anti-ApoA-I positive patient, FIG. 4). For the same substance, the “effect on TNF-α production induced by anti-ApoA-I IgG” value in series [4] (polyclonal anti-ApoA-I IgG 40 μg/ml pre-incubated with peptide 2 h, FIG. 6A) was “abrogated”. For the same substance, the “effect on TNF-α production induced by pool of IgG from anti-ApoA-I positive patients” value in series [4] (pooled patient IgG pre-incubated with peptide, FIG. 6B) is on record as “same effect”. For the same substance, the “effect on anti-ApoA-I IgG related chronotropic response” value in series [5] (antibody pre-incubated with peptide 75 μg/ml for 2 h, FIG. 7) is recorded as “fully abrogated”. Further, the “basal frequency contraction rate” value in series [5] (peptide added alone) is “did not alter”. In series [5] (peptide added alone, 10 nM aldosterone), the “contraction rate in the presence of 10 nM aldosterone” value was “did not alter”. For the same substance, in series [2], the alpha-helical content entry is reported as “increased alpha-helical content”.
Regarding “Ac-KELYLLKFTVESKVGSTELPLNFSLA-NH2 [scrambled F3, reference compound]”, the “inhibition” value with anti-ApoA-I antibodies [1] (setting [6]) is given as “absence of dose-dependent inhibition”.
In the case of “amino acid residues 189-215 of mature ApoA-1: peptide corresponding to amino acid residues 189-215 of mature ApoA-1 of SEQ ID NO: 1, containing helix E (LAEYHAKATEHLSTLSEKAKPALEDLR; UniProt P02647 213-239, looked up, fragment)”, the “immunoreactivity” value in the series with anti-ApoA-I antibodies [3] was “less immunoreactive”.
On to “Ac-VLESFKVSXaaLSALEEXaaTKKLNT-NH2 (Ac-VLESFKVS[R8]LSALEE[S5]TKKLNT-NH2; staple 9-16) [F4S2B]”, for which the alpha-helical content entry in series [2] was “increased alpha-helical content”.
Consider “EEMRDRARAHVDALRTHLAPYSDELRQRLAARLEALKEN (Region derived from Helix D of ApoA-I) [SEQ ID NO: 5]”, for which the “immunoreactivity” value in the series on anti-ApoA-I antibodies [3] is on record as “more immunoreactive”.
“VLESFKVSFLSALEEYTKKLNT (not fully specified (bridges)) [SEQ ID NO: 8, Region 1 derived from helix F]”: in the series with anti-ApoA-I antibodies [3], the “immunoreactivity” value is given as “more immunoreactive”.
